According to patent publication US10167322B2, “Engineered albumin binding polypeptide” (AFFIBODY AB, priority 2013, dated 2019):
Where “and” joins values, the source holds several entries; their conditions need not be identical. Identical values can stand only once. Like-named read-outs stand apart in the source and are kept apart here. Starred links: 1 amine or outer side, 2 acyl side, 3 side chain; linkers in the order of their positions; H or OH if unused. Positions of bridges follow the written chain, without caps; N, C: chain ends. No end group written: not given here. Pyridine(2,6-diCH2) = c1cc(C[*:1])nc(C[*:2])c1; mXylylene = c1cc(C[*:1])cc(C[*:2])c1; oXylylene = c1ccc(C[*:2])c(C[*:1])c1; X1 = O=C(C[*:1])[*:2]

Columns and labels:
[1] = Circular dichroism variable temperature measurement (melting temperature); type: physicochemical; details: CD at 221 nm, 20-90 °C, 50 μM in PBS pH 7.4
Description: Polypeptides were dissolved in PBS (pH 7.4) to a concentration of 50 μM (approximately 0.25 mg ml^−1) and CD spectra and melting curves were collected on a Jasco J-810 spectropolarimeter (Jasco) using a cell with an optical path-length of 1 mm. Variable temperature measurements, VTM, were used to determine Tm. In these measurements, the […] was measured at 221 nm from 20° C. to 90° C., with a temperature slope of 5° C. min^−1. The secondary structure of each variant was analyzed by recording a spectrum ranging from 250 to 195 nm at 20° C., both before and after VTM.

[2] = target: T1, human serum albumin (HSA) (Homo sapiens, UniProt P02768); experiment: SPR biosensor (ProteOn XPR36) HSA binding kinetics, 1:1 Langmuir fit; details: for comparison only; for kon / koff: triplicate, mean (±SD), relative values; for kon: read-out: ka (association rate constant); for koff: read-out: kd (dissociation rate constant)
Description: The HSA binding kinetics of PEP18049_CL and the reference protein PEP07830 were further studied using a sensor chip with HSA immobilized on three different surfaces to between 1100 RU and 1600 RU. The proteins were diluted in running buffer (0.8, 1.6, 3.3, and 6.6 nM for PEP18049_CL and 1.0, 2.0, 4.0 and 8.0 nM for PEP07830) and injected over the three HSA surfaces and thus giving binding curves in triplicate. The association time was 300 s and the dissociation was followed for 36 000 s (10 h).
The kinetic parameters of the binding of PEP18049_CL and the reference protein PEP07830 to HSA were obtained from fitting the obtained sensorgrams to a 1:1 Langmuir binding model using the ProteOn Manager software version 3.1.0.6 (Bio-Rad). The average association rate constant (ka (M^−1 s^−1) and dissociation rate constant (kd (s^−1)) with standard deviation were calculated. From the average ka and the kd the dissociation equilibrium constant (KD (M)) was calculated (KD=kd/ka).

[3] = target: T2, pepsin (Sus scrofa, UniProt P00791); experiment: Protease degradation analysis with pepsin (RP-HPLC of intact polypeptide); type: in vitro ADME, porcine; details: for AUC increase / resistance towards degradation by pepsin compared to PEP07830: 0.5 μg ml^−1 pepsin, 0-60 min; for AUC increase / resistance towards degradation by pepsin compared to PEP07830 / Resistance towards degradation by pepsin, screening: 37 °C; for Resistance towards degradation by pepsin, screening: 2 μg ml^−1 pepsin, pH around 2.6, 10 min
T2 construct: purchased Sigma; host or cells: porcine gastric mucosa
T2 sequence (P00791 60-385): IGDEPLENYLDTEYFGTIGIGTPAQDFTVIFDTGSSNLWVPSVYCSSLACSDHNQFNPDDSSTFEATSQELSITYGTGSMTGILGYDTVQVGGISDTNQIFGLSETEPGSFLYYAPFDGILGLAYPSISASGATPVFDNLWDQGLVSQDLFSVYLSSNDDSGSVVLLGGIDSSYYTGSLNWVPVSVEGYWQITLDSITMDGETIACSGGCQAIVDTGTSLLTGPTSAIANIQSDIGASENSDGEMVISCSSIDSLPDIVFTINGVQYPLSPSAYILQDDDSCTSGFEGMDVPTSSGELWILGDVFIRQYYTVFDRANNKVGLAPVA
Description: (§1) Proteolytic degradation was studied using pepsin (obtained from porcine gastric mucosa, 3200-4500 U mg^−1, Sigma) and a mixture of trypsin (obtained from bovine pancreas, ≈37 U mg^−1, Sigma) and chymotrypsin (obtained from bovine pancreas, ≥40 U mg^−1, Sigma). In all degradation experiments, 5 μg protein in PBS (pH 7.4) at a concentration of 0.25 mg ml^−1 (50 μM) was used.
5 μg of each variant was transferred to a microcentrifuge tube. 32 μl 10 mM HCl with pepsin at a concentration of 3.25 μg ml^−1 or 0.81 μg ml^−1, resulting in a pH around 2.6 and a final pepsin concentration of 2 μg ml^−1 to be used for screening experiment and 0.5 μg ml^−1 for studying the degradation over time. In the screening experiment, the samples were incubated for 10 min at 37° C. before the enzyme was inactivated by addition of 5 μl 0.1 M NaOH, which raised the pH to above 9, and then the sample was put on ice. A reference sample of each protein was inactivated with NaOH before pepsin was added to the tube.
The degradation over time was monitored for PEP18049_CL, PEP14788_CL_A and the reference polypeptide PEP07830 by incubation for 3, 6, 12, 30 or 60 min at 37° C. before inactivation with NaOH. Reference samples, inactivated with NaOH before the pepsin was added to the tube, were incubated likewise.
(§2) All samples were analyzed by RP-HPLC using an analytical column (Zorbax 300SB-C18, 4.6×150 mm, 3.5 μm particle size, Agilent Technologies) and a gradient of 15-45% solvent B (solvent A: 0.1% TFA-H2O; solvent B: 0.1% TFA-CH3CN) over 25 min at a flow rate of 1.2 ml min^−1 and LC-ESI-MS on a 6520 Accurate Mass Q-TOF LC/MS.
(§3) The elution peaks containing the intact polypeptides were integrated and the area under curve was calculated. The degradation experiments over time were performed in triplicates. The integrated area of each sample was normalized to the mean area of the t=0 samples of that variant, the mean and standard error of the mean were calculated for each time point.
(§4) To quantify the stability improvement of the crosslinked variants, the AUC (area under curve) from the normalized charts was calculated for the three investigated variants. The AUC of the crosslinked variants was then compared to the AUC of the reference polypeptide.

[4] = target: T1, human serum albumin (HSA); experiment: SPR biosensor (ProteOn XPR36) screening of binding to immobilized HSA; details: 50 nM polypeptide, 2500 RU immobilized HSA, 25 °C
Description: Biosensor binding analyses were performed on a ProteOn XPR36 instrument (Bio-Rad) at 25° C. using PBST (150 mM NaCl, 8 mM Na2HPO4, 2 mM NaH2PO4, 0.005% Tween20, pH 7.4) as running buffer at a flow rate of 50 μl min^−1. An injection of 30 μl of 20 mM HCl at a flow rate of 100 μl min^−1 was used for chip regeneration. In a screening experiment, the binding of all polypeptide variants to human serum albumin (HSA) was investigated. The proteins were diluted to 50 nM in running buffer and injected over a chip surface with 2500 RU of immobilized HSA. The association was studied for 300 s and the dissociation was followed for 7200 s (2 h). For data analysis, all samples were double referenced; the signal from a blank surface was first subtracted from the signal from the respective protein, and secondly the signal from an injection of PBST (running buffer) over the HSA surface was subtracted.

[5] = system: trypsin and chymotrypsin; experiment: Protease degradation analysis with trypsin and chymotrypsin (RP-HPLC of intact polypeptide); type: in vitro ADME, bovine; details: for AUC increase / resistance towards degradation by trypsin together with chymotrypsin compared to PEP07830 / Resistance towards degradation by trypsin and chymotrypsin, screening: 2.7 μg ml^−1 trypsin, 1.2 μg ml^−1 chymotrypsin, 37 °C; for AUC increase / resistance towards degradation by trypsin together with chymotrypsin compared to PEP07830: 0-60 min; for Resistance towards degradation by trypsin and chymotrypsin, screening: PBS pH 7.4, 10 min
Description: as §1
5 μg of each variant was transferred to a microcentrifuge tube. 32 μl PBS (pH 7.4) with trypsin at a concentration of 4.39 μg ml^−1 and chymotrypsin at a concentration of 1.95 μg ml^−1 was added to yield a final concentration of 2.7 μg ml^−1 of trypsin and 1.2 μg ml^−1 of chymotrypsin. In the screening experiment, the samples were incubated for 10 min at 37° C. before the enzyme was inactivated by addition of 3 μl 10% TFA and then the sample was put on ice. A reference sample of each protein was inactivated with TFA before the trypsin and chymotrypsin were added to the tube.
The degradation over time was monitored for PEP18049_CL, PEP14788_CL_A and the reference polypeptide PEP07830 by incubation for 3, 6, 12, 30, or 60 min at 37° C. before inactivation with TFA. As above, reference samples, inactivated with TFA before trypsin and chymotrypsin were added to the tube, were incubated likewise.
as §2, §3, §4

[6] = human, HSA immobilized on SPR sensor chip (ProteOn XPR36)
[7] = LC-ESI-MS of degradation products

For “Ac-LAEAKEAANAELDSYGCSDFYKRLIDKAKTVEGVEALKDAILAAKP-NH2 (linker 17-45 via X1) [PEP18049_CL]”, the “Tm (melting temperature)” value [1] was 63 °C, the kon [2, 6] was 620000 M⁻¹ s⁻¹ and the koff [2, 6] was 1.5e-05 s⁻¹. The Kd ([2]; triplicates) was ~0.024 nM and 0.024 nM, the “AUC increase / resistance towards degradation by pepsin compared to PEP07830” value [3] was 17 fold and the “Resistance towards degradation by pepsin, screening” value [3] was “increased resistance towards degradation”. For the same substance, the “HSA binding in screening experiment” value [4] was “fast on-rate and a two phase-like dissociation”, the “AUC increase / resistance towards degradation by trypsin together with chymotrypsin compared to PEP07830” value [5] was 5 fold and the “Resistance towards degradation by trypsin and chymotrypsin, screening” value [5] was “increased resistance towards degradation”.

In the case of “LAEAKEAANAELDSYGCSDFYKRLIDKAKTVEGVEALKDAILAACP-NH2 (linker 17-45 via Pyridine(2,6-diCH2)) [PEP14788_CL_E]”, the “Resistance towards degradation by pepsin, screening” value [3] is reported as “no significant difference between these variants” and the “Resistance towards degradation by trypsin and chymotrypsin, screening” value [5] is reported as “no significant difference between these variants”.

In the case of “LAEAKEAANAELDSYGCSDFYKRLIDKAKTVEGVEALKDAILAACP-NH2 (linker 17-45 via mXylylene) [PEP14788_CL_B]”, the “Resistance towards degradation by pepsin, screening” value [3] is reported as “no significant difference between these variants” and the “Resistance towards degradation by trypsin and chymotrypsin, screening” value [5] is reported as “no significant difference between these variants”.

In the case of “LAEAKEAANAELDSYGCSDFYKRLIDKAKTVEGVEALKDAILAACP-NH2 (linker 17-45 via oXylylene) [PEP14788_CL_A]”, the “AUC increase / resistance towards degradation by pepsin compared to PEP07830” value [3] is reported as 2.4 fold, the “Resistance towards degradation by pepsin, screening” value [3] is reported as “no significant difference between these variants” and the “AUC increase / resistance towards degradation by trypsin together with chymotrypsin compared to PEP07830” value [5] is reported as 1.4 fold. The “Resistance towards degradation by trypsin and chymotrypsin, screening” value [5] was “no significant difference between these variants”.

With “LAEAKEAANAELDSYGVSDFYKRLIDKAKTVEGVEALKDAILAALP-NH2 (C-terminus assumed) [PEP07830, reference compound]” the Kd ([2]; human, KD=kd/ka from average ka and kd) was 0.021 nM, the kon ([2]; human) was 190000 M⁻¹ s⁻¹ and the koff ([2]; human) was 4.1e-06 s⁻¹. The Kd ([2]; human, triplicates) was about 0.021 nM, the “Peptide bond rapidly cleaved by pepsin (major degradation products)” value [3, 7] was “between Leu42 and Ala43” and the “Peptide bond most susceptible for cleavage by trypsin and chymotrypsin” value [5, 7] was “between Tyr21 and Lys22”.

With “PEP18050_CL: SEQ ID NO:1769 (PEP18050), control polypeptide, crosslinked Lys5-Cys28 (LAEAKEAANAELDSYGVSDFYKRLIDKCKTVEGVEALKDAILAALP; Lys5-Cys28 crosslink; Engineered albumin binding polypeptide)” the “HSA binding in screening experiment” value [4] was “completely lost their affinity for HSA”.

For “PEP18051_CL: SEQ ID NO:1770 (PEP18051), control polypeptide, crosslinked Cys1-Lys29 (CAEAKEAANAELDSYGVSDFYKRLIDKAKTVEGVEALKDAILAALP; Cys1-Lys29 crosslink; Engineered albumin binding polypeptide)”, the “HSA binding in screening experiment” value [4] was “slower on-rate, but also seemed to have a very slow off-rate indicating a high affinity for HSA”.

For “PEP18052_CL: SEQ ID NO:1771 (PEP18052), control polypeptide, double crosslinked (LAEAKEAANAELDSYGCSDFYKRLIDKCKTVEGVEALKDAILAAKP; double crosslinked; Engineered albumin binding polypeptide)”, the “HSA binding in screening experiment” value [4] was “completely lost their affinity for HSA”.

In the case of “PEP18053_CL: SEQ ID NO:1772 (PEP18053), control polypeptide, double crosslinked (CAEAKEAANAELDSYGCSDFYKRLIDKAKTVEGVEALKDAILAAKP; double crosslinked; Engineered albumin binding polypeptide)”, the “HSA binding in screening experiment” value [4] is reported as “weak binding”.
